The CheMixHub viscosity set
± gives the uncertainty stated by the source.

Experiment: xn = mol fraction of the nth substance listed

CC(=O)OC(C)C + C1CCCCC1
viscosity [mPa·s], 101 kPa
Conditions | 298.15 K | 308.15 K
x1 = 0.0846 | 0.8036 ± 0.0051 | 0.6718 ± 0.0044
x1 = 0.1126 | 0.7518 ± 0.0049 | 0.6494 ± 0.0043
x1 = 0.1665 | 0.705 ± 0.0046 | 0.612 ± 0.0041
x1 = 0.2671 | 0.636 ± 0.0042 | 0.5559 ± 0.0038
x1 = 0.3555 | 0.594 ± 0.004 | 0.5212 ± 0.0036
x1 = 0.4881 | 0.5485 ± 0.0038 | 0.4824 ± 0.0034
x1 = 0.5911 | 0.5241 ± 0.0036 | 0.462 ± 0.0033
x1 = 0.6773 | 0.5099 ± 0.0035 | 0.4512 ± 0.0032
x1 = 0.7902 | 0.4951 ± 0.0035 | 0.441 ± 0.0032
x1 = 0.8873 | 0.4932 ± 0.0035 | 0.4366 ± 0.0031
x1 = 0.9593 | 0.4903 ± 0.0034 | 0.4349 ± 0.0031
x2 = 0.07507 | – | 0.4324 ± 0.0096
x2 = 0.2053 | – | 0.4373 ± 0.0096
x2 = 0.298 | – | 0.4444 ± 0.0097
x2 = 0.3967 | – | 0.4564 ± 0.0099
x2 = 0.505 | – | 0.4759 ± 0.01
x2 = 0.6014 | – | 0.4989 ± 0.01
x2 = 0.714 | – | 0.5351 ± 0.011
x2 = 0.7973 | – | 0.5787 ± 0.012
x2 = 0.8978 | – | 0.6451 ± 0.013

CCCC(=O)O + C1CCCCC1
303.15 K, 101 kPa
Conditions | viscosity [mPa·s]
x2 = 0.101 | 1.196 ± 0.014
x2 = 0.1921 | 1.069 ± 0.013
x2 = 0.2875 | 0.9914 ± 0.012
x2 = 0.3938 | 0.9189 ± 0.011
x2 = 0.4993 | 0.867 ± 0.01
x2 = 0.591 | 0.8407 ± 0.0099
x2 = 0.6993 | 0.7948 ± 0.0094
x2 = 0.8074 | 0.7912 ± 0.0094
x2 = 0.9011 | 0.7924 ± 0.0094

CCCC(C)O (configuration not stated) + C1CCCCC1
303.15 K, 101.33 kPa
Conditions | viscosity [mPa·s]
x1 = 0.1049 | 0.874 ± 0.011
x1 = 0.2028 | 0.94 ± 0.012
x1 = 0.3035 | 1.03 ± 0.013
x1 = 0.4031 | 1.151 ± 0.014
x1 = 0.5017 | 1.306 ± 0.016
x1 = 0.6043 | 1.534 ± 0.018
x1 = 0.6903 | 1.772 ± 0.021
x1 = 0.801 | 2.116 ± 0.025
x1 = 0.9115 | 2.521 ± 0.029

CCCCBr + C1CCCCC1
308.15 K, 101 kPa
Conditions | viscosity [mPa·s]
x2 = 0.1017 | 0.5246 ± 0.0044
x2 = 0.2037 | 0.5305 ± 0.0043
x2 = 0.3038 | 0.5365 ± 0.0042
x2 = 0.4015 | 0.5458 ± 0.0042
x2 = 0.5006 | 0.5596 ± 0.0042
x2 = 0.5951 | 0.5789 ± 0.0043
x2 = 0.7004 | 0.6032 ± 0.0043
x2 = 0.8014 | 0.6338 ± 0.0044
x2 = 0.899 | 0.6799 ± 0.0046

CCCCNCCCC + C1CCCCC1
viscosity [mPa·s], 101 kPa
Conditions | 303.15 K | 313.15 K
x1 = 0.01094 | 0.8102 ± 0.0056 | 0.7072 ± 0.005
x1 = 0.02041 | 0.8023 ± 0.0055 | 0.6959 ± 0.005
x1 = 0.02983 | 0.7945 ± 0.0055 | 0.6867 ± 0.0049
x1 = 0.03917 | 0.7871 ± 0.0055 | 0.6761 ± 0.0049
x1 = 0.04929 | 0.7755 ± 0.0054 | 0.6665 ± 0.0048
x1 = 0.05831 | 0.7665 ± 0.0054 | 0.6583 ± 0.0048
x1 = 0.06895 | 0.7585 ± 0.0053 | 0.6494 ± 0.0048
x1 = 0.07966 | 0.7491 ± 0.0053 | 0.6406 ± 0.0047
x1 = 0.08806 | 0.742 ± 0.0053 | 0.6327 ± 0.0047
x2 = 0.1011 | 0.749 ± 0.015 | –
x2 = 0.2001 | 0.737 ± 0.015 | –
x2 = 0.3025 | 0.731 ± 0.015 | –
x2 = 0.4034 | 0.728 ± 0.015 | –
x2 = 0.4997 | 0.727 ± 0.015 | –
x2 = 0.605 | 0.729 ± 0.015 | –
x2 = 0.7025 | 0.727 ± 0.015 | –
x2 = 0.7989 | 0.743 ± 0.015 | –
x2 = 0.8971 | 0.759 ± 0.015 | –

COCCO + C1CCCCC1
viscosity [mPa·s], 101 kPa
Conditions | 298.15 K | 308.15 K
x1 = 0.054 | 0.905 ± 0.016 | 0.75 ± 0.013
x1 = 0.1506 | 0.923 ± 0.016 | 0.757 ± 0.013
x1 = 0.2513 | 0.95 ± 0.016 | 0.773 ± 0.014
x1 = 0.3532 | 0.989 ± 0.017 | 0.797 ± 0.014
x1 = 0.4508 | 1.037 ± 0.017 | 0.829 ± 0.015
x1 = 0.4955 | 1.062 ± 0.018 | 0.847 ± 0.015
x1 = 0.5513 | 1.098 ± 0.018 | 0.873 ± 0.015
x1 = 0.649 | 1.172 ± 0.019 | 0.926 ± 0.016
x1 = 0.7493 | 1.264 ± 0.021 | 0.994 ± 0.017
x1 = 0.8496 | 1.377 ± 0.022 | 1.079 ± 0.018
x1 = 0.9529 | 1.518 ± 0.024 | 1.185 ± 0.02

CCCC(=O)O + C1CCOC1
298.15 K, 101 kPa
Conditions | viscosity [mPa·s]
x2 = 0.1195 | 1.45 ± 0.012
x2 = 0.234 | 1.43 ± 0.012
x2 = 0.3437 | 1.34 ± 0.011
x2 = 0.4489 | 1.212 ± 0.01
x2 = 0.5499 | 1.068 ± 0.0091
x2 = 0.647 | 0.9205 ± 0.0078
x2 = 0.7403 | 0.7856 ± 0.0067
x2 = 0.8301 | 0.6588 ± 0.0057
x2 = 0.9166 | 0.545 ± 0.0048

CCOC(=O)C(=O)OCC + C1CCOC1
viscosity [mPa·s], 101 kPa
Conditions | x1 = 0.0955 | x1 = 0.2037 | x1 = 0.3007 | x1 = 0.4056 | x1 = 0.513 | x1 = 0.6056 | x1 = 0.7083 | x1 = 0.7994 | x1 = 0.9082
303.15 K | 0.506 ± 0.031 | 0.591 ± 0.036 | 0.683 ± 0.041 | 0.795 ± 0.048 | 0.916 ± 0.055 | 1.03 ± 0.062 | 1.173 ± 0.071 | 1.298 ± 0.078 | 1.472 ± 0.089
313.15 K | 0.453 ± 0.027 | 0.529 ± 0.032 | 0.607 ± 0.037 | 0.698 ± 0.042 | 0.801 ± 0.048 | 0.893 ± 0.054 | 1.006 ± 0.061 | 1.107 ± 0.067 | 1.237 ± 0.075
323.15 K | 0.414 ± 0.025 | 0.479 ± 0.029 | 0.544 ± 0.033 | 0.619 ± 0.037 | 0.701 ± 0.042 | 0.782 ± 0.047 | 0.872 ± 0.053 | 0.954 ± 0.058 | 1.057 ± 0.064

C1CC[C@H]2CCCC[C@H]2C1 + C1CC[C@H]2CCCC[C@@H]2C1
Conditions | viscosity [mPa·s]
293.15 K, 101 kPa, x1 = 0.103 | 2.193 ± 0.051
293.15 K, 101 kPa, x1 = 0.129 | 2.206 ± 0.052
293.15 K, 101 kPa, x1 = 0.206 | 2.289 ± 0.053
293.15 K, 101 kPa, x1 = 0.256 | 2.321 ± 0.054
293.15 K, 101 kPa, x1 = 0.383 | 2.391 ± 0.056
293.15 K, 101 kPa, x1 = 0.509 | 2.622 ± 0.061
293.15 K, 101 kPa, x1 = 0.608 | 2.748 ± 0.063
293.15 K, 101 kPa, x1 = 0.633 | 2.763 ± 0.064
293.15 K, 101 kPa, x1 = 0.756 | 2.943 ± 0.068
293.15 K, 101 kPa, x1 = 0.805 | 3.026 ± 0.069
293.15 K, 101 kPa, x1 = 0.903 | 3.178 ± 0.073
293.15 K, 101.3 kPa, x1 = 0.403 | 2.445 ± 0.29
298.15 K, 100 kPa, x1 = 0.39 | 2.22 ± 0.09
303.15 K, 101 kPa, x1 = 0.103 | 1.68 ± 0.04
303.15 K, 101 kPa, x1 = 0.129 | 1.704 ± 0.041
303.15 K, 101 kPa, x1 = 0.206 | 1.748 ± 0.042
303.15 K, 101 kPa, x1 = 0.256 | 1.792 ± 0.043
303.15 K, 101 kPa, x1 = 0.383 | 1.896 ± 0.045
303.15 K, 101 kPa, x1 = 0.509 | 1.977 ± 0.047
303.15 K, 101 kPa, x1 = 0.608 | 2.062 ± 0.048
303.15 K, 101 kPa, x1 = 0.633 | 2.094 ± 0.049
303.15 K, 101 kPa, x1 = 0.756 | 2.151 ± 0.05
303.15 K, 101 kPa, x1 = 0.805 | 2.244 ± 0.052
303.15 K, 101 kPa, x1 = 0.903 | 2.342 ± 0.055
303.15 K, 101.3 kPa, x1 = 0.403 | 1.998 ± 0.24
313.15 K, 101.3 kPa, x1 = 0.403 | 1.705 ± 0.2
323.15 K, 100 kPa, x1 = 0.39 | 1.44 ± 0.059
323.15 K, 101.3 kPa, x1 = 0.403 | 1.457 ± 0.17

CC(CC(C)(C)C)CC(C)(C)CC(C)(C)C (configuration not stated) + C1CC[C@H]2CCCC[C@H]2C1
viscosity [mPa·s], 100 kPa
Conditions | x2 = 0.125 | x2 = 0.25 | x2 = 0.375 | x2 = 0.5 | x2 = 0.625 | x2 = 0.75 | x2 = 0.875
293.15 K | 3.68 ± 0.095 | 3.64 ± 0.094 | 3.559 ± 0.092 | 3.505 ± 0.09 | 3.456 ± 0.088 | 3.402 ± 0.087 | 3.377 ± 0.086
303.15 K | 2.919 ± 0.076 | 2.871 ± 0.075 | 2.83 ± 0.074 | 2.797 ± 0.073 | 2.765 ± 0.072 | 2.736 ± 0.07 | 2.713 ± 0.07
313.15 K | 2.364 ± 0.061 | 2.334 ± 0.06 | 2.303 ± 0.059 | 2.279 ± 0.058 | 2.259 ± 0.058 | 2.254 ± 0.057 | 2.228 ± 0.056
323.15 K | 1.961 ± 0.05 | 1.934 ± 0.049 | 1.911 ± 0.048 | 1.897 ± 0.048 | 1.884 ± 0.047 | 1.876 ± 0.047 | 1.87 ± 0.047

CCCCNCCCC + C1COCCO1
Conditions | viscosity [mPa·s]
303.15 K, 101 kPa, x1 = 0.01068 | 1.065 ± 0.0078

CCCC(=O)O + C1COCO1
298.15 K, 101 kPa
Conditions | viscosity [mPa·s]
x2 = 0.2292 | 1.358 ± 0.011
x2 = 0.3376 | 1.288 ± 0.011
x2 = 0.5433 | 1.098 ± 0.0093
x2 = 0.6408 | 0.9928 ± 0.0084
x2 = 0.7351 | 0.8845 ± 0.0075
x2 = 0.8263 | 0.7758 ± 0.0066
x2 = 0.9146 | 0.6775 ± 0.0058
